According to the supplement of paper PMC10307832:

Columns and labels:
Assay in all cases: relative viability (nuclei count vs DMSO), 5 days (fraction); higher = more cells survive
Imatinib = compound: Cc1ccc(NC(=O)c2ccc(CN3CCN(C)CC3)cc2)cc1Nc1nccc(-c2cccnc2)n1 [Imatinib]
Summary of the method: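 Vehicle-anchored 1536-well plates of lung cancer cell lines, held overnight at 37 °C, were pinned with five library-drug doses (not always all listed) spaced by √10. No medium change followed over the next 5 days, after which the cells were fixed, permeabilised and Hoechst-stained together and imaged at 4×. Nuclei were counted with MetaXpress, and viability is treated-well nuclei over vehicle-well nuclei, taken as a median across plates. Plates passed with control CV below 25% and at least one doubling.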

Imatinib + Decitabine = compound: Cc1ccc(NC(=O)c2ccc(CN3CCN(C)CC3)cc2)cc1Nc1nccc(-c2cccnc2)n1 [Imatinib] + Nc1ncn([C@H]2C[C@H](O)[C@@H](CO)O2)c(=O)n1 [Decitabine] (partner 2 µM)
Summary of the method: (§1)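 Lung cancer cell lines were pin-tool dosed in 1536-well plates on the day after seeding, with either a lone drug or a fixed anchor-drug dose plus five library-drug doses (not always all listed) in √10 steps. Nuclei were counted on 4× images after 5 days. Relative viability is the ratio of treated-well to vehicle-well nuclei counts, with each value a median of duplicate plates.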

Imatinib + Crizotinib = compound: Cc1ccc(NC(=O)c2ccc(CN3CCN(C)CC3)cc2)cc1Nc1nccc(-c2cccnc2)n1 [Imatinib] + C[C@@H](Oc1cc(-c2cnn(C3CCNCC3)c2)cnc1N)c1c(Cl)ccc(F)c1Cl [Crizotinib] (partner 1 µM)
Summary of the method: as §1

Imatinib + Olaparib = compound: Cc1ccc(NC(=O)c2ccc(CN3CCN(C)CC3)cc2)cc1Nc1nccc(-c2cccnc2)n1 [Imatinib] + O=C(c1cc(Cc2n[nH]c(=O)c3ccccc23)ccc1F)N1CCN(C(=O)C2CC2)CC1 [Olaparib] (partner 8 µM)
Summary of the method: as §1

| Cell Line | relative viability (Imatinib; 0.06325 µM) | relative viability (Imatinib; 0.2 µM) | relative viability (Imatinib; 0.6325 µM) | relative viability (Imatinib; 2 µM) | relative viability (Imatinib + Decitabine; first compound 0.02 µM) | relative viability (Imatinib + Decitabine; first compound 0.06325 µM) | relative viability (Imatinib + Decitabine; first compound 0.2 µM) | relative viability (Imatinib + Decitabine; first compound 0.6325 µM) | relative viability (Imatinib + Decitabine; first compound 2 µM) | relative viability (Imatinib + Crizotinib; first compound 0.02 µM) | relative viability (Imatinib + Crizotinib; first compound 0.06325 µM) | relative viability (Imatinib + Crizotinib; first compound 0.2 µM) | relative viability (Imatinib + Crizotinib; first compound 0.6325 µM) | relative viability (Imatinib + Crizotinib; first compound 2 µM) | relative viability (Imatinib + Olaparib; first compound 0.02 µM) | relative viability (Imatinib + Olaparib; first compound 0.06325 µM) | relative viability (Imatinib + Olaparib; first compound 0.2 µM) | relative viability (Imatinib + Olaparib; first compound 0.6325 µM) | relative viability (Imatinib + Olaparib; first compound 2 µM) | relative viability (Imatinib; 0.02 µM) |
| --- | --- | --- | --- | --- | --- | --- | --- | --- | --- | --- | --- | --- | --- | --- | --- | --- | --- | --- | --- | --- |
| SK-MES-1 | 1.05 | 1.21 | 1.01 | 1.04 | 0.379 | 0.412 | 0.413 | 0.417 | 0.334 | 1.08 | 0.999 | 1.16 | 1.05 | 0.971 | 0.778 | 0.742 | 0.92 | 0.684 | 0.711 | – |
| SW 1573 | 0.79 | 1.13 | 1.01 | 1.02 | 0.646 | 0.4 | 0.575 | 0.471 | 0.437 | 0.996 | – | 0.956 | 0.726 | 0.755 | 0.62 | 0.704 | 0.425 | 0.485 | 0.559 | 1.16 |
| UMC-11 | 0.987 | 1.03 | 1.1 | 0.941 | 0.554 | 0.615 | 0.59 | 0.619 | 0.683 | 0.702 | 0.647 | 0.56 | 0.564 | 0.818 | 0.352 | 0.514 | 0.366 | 0.41 | 0.301 | 1.03 |
